According to publication PMC3176812, “Co-Crystal Structures of Inhibitors with MRCKβ, a Key Regulator of Tumor Cell Invasion” (PLoS ONE, 2011):

Columns and labels:
[1] = biological target: T1, MRCKβ (Homo sapiens, UniProt Q9Y5S2); experiment: IMAP fluorescence polarization in vitro kinase assay, MRCKβ; assay type: biochemical; settings: for Inhibition at 3 µM (%) / Inhibition at 30 µM (%): MRCKβ in vitro kinase assay, ATP at enzyme Km (0.7 µM); for Inhibition at 3 µM (%): 3 µM inhibitor; for Inhibition at 30 µM (%): 30 µM inhibitor; for inhibition at 3 µM: read-out: Inhibition at 3 µM (%); for inhibition at 30 µM: read-out: Inhibition at 30 µM (%); for IC50: 10 point dose-response, 0.002–40 µM, 0.7 µM ATP
T1 construct: purchased Millipore

[2] = test system: MRCK; design: method as in earlier work; settings: >140 times higher ATP concentration; ref 27 (Amano et al.); cited from earlier work
[3] = biological target: T2, MRCKα (Homo sapiens, UniProt Q5VT25); experiment: IMAP fluorescence polarization in vitro kinase assay, MRCKα; assay type: biochemical; settings: 10 point dose-response, 0.002–40 µM, 0.7 µM ATP
T2 construct: purchased Millipore
Experimental: Activity assays for MRCKα and β were performed using an IMAP fluorescence polarization assay kit (Molecular Devices Inc.). […] Dose response inhibition analyses were performed over a drug concentration range from 0.002–40 µM, and single point inhibition was assessed at 3 or 30 µM drug.

[4] = test system: MDA MB 231 breast cancer cells; experiment: 3-dimensional inverse matrigel invasion assay; assay type: cell-based; settings: 5 days
From the text: The contribution of MRCK to tumor cell invasion was examined by knocking down both MRCKα and MRCKβ in MB 231 breast cancer cells and determining the effects in a 3-dimensional inverse matrigel invasion assay. The combined MRCKα plus MRCKβ knockdown could be achieved either with two siRNA duplexes targeting each mRNA transcript (MRCKα+β) or with a single siRNA duplex (MRCKα/β) that targets both (Figure 1A). Following plating on the underside of Transwell inserts containing a thick layer of matrigel and allowing 5 days for invasion through the porous filter and into the matrigel, the extent of MDA MB 231 cell invasion was determined by fixing and staining cells with propidium iodide, followed by confocal microscopic optical sectioning at 10 µm intervals (Figure 1B).
Cell invasion assays were as previously described. Complete Matrigel was thawed on ice, diluted 1∶1 with PBS and then 100 µl of diluted matrigel pipetted into Transwell inserts in a 24 well tissue culture plate and left to incubate for 30 minutes at 37°C to set. During this time cell suspensions of 3×10^5 cells per ml from each condition were prepared in their normal growth medium. When the Matrigel had set, the Transwell inserts were inverted and 100 µl of cell suspension pipetted onto the filter. […] ImageJ software was used for quantification. […]

T1 sequence (Q9Y5S2 whole entry): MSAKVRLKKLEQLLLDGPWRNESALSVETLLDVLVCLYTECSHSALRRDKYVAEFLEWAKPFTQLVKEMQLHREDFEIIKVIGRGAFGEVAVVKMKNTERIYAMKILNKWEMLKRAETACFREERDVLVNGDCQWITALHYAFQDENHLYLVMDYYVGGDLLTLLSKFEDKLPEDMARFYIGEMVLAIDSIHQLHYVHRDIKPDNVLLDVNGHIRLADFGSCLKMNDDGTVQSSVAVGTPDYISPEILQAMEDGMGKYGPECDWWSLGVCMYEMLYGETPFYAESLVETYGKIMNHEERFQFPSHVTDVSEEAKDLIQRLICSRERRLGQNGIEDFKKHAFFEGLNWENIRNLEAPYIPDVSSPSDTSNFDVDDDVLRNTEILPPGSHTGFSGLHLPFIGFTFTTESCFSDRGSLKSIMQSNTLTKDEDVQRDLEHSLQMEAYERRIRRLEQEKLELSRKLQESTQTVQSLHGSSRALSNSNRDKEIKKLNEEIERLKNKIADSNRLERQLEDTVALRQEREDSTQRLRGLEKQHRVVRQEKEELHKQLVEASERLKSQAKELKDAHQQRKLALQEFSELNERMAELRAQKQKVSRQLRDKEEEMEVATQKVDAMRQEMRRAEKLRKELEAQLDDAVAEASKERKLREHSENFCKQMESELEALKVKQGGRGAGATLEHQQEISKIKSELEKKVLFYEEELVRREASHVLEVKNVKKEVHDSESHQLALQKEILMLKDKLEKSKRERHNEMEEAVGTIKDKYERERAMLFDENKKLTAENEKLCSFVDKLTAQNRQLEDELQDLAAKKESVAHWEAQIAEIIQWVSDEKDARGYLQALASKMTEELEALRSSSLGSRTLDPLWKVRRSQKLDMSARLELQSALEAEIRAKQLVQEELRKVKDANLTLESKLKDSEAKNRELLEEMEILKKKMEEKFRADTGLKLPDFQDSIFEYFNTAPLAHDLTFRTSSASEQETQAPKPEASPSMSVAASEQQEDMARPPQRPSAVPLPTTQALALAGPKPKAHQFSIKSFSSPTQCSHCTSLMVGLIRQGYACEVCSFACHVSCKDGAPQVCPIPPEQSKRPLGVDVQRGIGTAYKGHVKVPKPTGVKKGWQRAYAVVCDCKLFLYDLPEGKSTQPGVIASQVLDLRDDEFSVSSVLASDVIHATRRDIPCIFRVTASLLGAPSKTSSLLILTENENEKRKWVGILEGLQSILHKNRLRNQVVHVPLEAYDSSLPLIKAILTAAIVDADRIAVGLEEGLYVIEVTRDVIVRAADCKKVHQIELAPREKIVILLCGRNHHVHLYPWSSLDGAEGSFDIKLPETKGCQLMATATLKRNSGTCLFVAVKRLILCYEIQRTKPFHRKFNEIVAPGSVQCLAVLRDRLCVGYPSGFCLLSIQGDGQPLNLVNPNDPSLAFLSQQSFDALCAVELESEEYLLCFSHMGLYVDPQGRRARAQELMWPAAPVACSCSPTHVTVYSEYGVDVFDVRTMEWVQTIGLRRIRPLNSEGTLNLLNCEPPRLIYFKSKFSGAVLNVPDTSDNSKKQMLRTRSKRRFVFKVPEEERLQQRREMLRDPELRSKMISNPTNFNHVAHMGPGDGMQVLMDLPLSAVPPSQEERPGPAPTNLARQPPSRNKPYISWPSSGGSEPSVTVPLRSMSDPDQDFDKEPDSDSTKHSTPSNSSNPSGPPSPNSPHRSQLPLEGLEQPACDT
T2 sequence (Q5VT25 whole entry): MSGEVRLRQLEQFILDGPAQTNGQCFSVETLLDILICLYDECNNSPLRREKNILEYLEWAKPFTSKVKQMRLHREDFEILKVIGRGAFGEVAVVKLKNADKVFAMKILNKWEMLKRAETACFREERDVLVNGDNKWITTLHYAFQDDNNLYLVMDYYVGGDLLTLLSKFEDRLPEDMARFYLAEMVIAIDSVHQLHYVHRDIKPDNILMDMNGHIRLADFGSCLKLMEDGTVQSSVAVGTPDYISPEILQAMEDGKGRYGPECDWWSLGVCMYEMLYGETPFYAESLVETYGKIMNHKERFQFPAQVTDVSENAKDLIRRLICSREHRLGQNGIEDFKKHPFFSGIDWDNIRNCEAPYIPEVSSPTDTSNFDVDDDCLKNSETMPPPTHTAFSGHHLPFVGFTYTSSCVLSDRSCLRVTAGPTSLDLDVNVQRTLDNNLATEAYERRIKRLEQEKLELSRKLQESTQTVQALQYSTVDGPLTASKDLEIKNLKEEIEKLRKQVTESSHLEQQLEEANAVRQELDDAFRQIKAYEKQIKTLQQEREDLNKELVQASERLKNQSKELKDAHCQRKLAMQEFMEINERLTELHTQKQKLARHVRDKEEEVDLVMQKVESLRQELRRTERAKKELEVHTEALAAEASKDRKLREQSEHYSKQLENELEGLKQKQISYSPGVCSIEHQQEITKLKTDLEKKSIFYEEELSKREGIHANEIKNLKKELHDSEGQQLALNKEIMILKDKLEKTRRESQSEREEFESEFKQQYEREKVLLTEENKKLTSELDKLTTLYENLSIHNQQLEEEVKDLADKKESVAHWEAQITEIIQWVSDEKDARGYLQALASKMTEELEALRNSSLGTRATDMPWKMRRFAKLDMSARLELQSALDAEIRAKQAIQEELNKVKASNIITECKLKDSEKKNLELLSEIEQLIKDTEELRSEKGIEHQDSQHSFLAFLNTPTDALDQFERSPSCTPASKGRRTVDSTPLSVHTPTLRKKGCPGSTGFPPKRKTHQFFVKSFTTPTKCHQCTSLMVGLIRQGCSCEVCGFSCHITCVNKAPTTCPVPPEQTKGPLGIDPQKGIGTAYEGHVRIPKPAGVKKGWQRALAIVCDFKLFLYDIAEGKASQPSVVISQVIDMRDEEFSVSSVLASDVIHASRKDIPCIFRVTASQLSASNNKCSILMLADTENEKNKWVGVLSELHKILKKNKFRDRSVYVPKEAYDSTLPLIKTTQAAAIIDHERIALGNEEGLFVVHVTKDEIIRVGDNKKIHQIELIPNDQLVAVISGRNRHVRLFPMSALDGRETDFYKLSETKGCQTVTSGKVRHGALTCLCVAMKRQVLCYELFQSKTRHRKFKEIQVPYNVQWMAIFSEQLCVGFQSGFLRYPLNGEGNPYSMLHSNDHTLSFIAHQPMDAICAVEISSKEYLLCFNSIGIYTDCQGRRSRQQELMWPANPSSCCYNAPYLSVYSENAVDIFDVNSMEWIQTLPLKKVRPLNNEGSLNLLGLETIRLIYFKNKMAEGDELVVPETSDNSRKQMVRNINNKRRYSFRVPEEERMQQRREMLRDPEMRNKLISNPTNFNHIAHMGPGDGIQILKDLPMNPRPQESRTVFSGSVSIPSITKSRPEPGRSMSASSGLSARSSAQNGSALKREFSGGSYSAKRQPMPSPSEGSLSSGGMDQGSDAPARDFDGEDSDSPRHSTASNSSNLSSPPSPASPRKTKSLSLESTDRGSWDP

| Molecule | Inhibition at 3 µM (%) [1] [%] | Inhibition at 30 µM (%) [1] [%] | also measured |
| --- | --- | --- | --- |
| N#CCCc1ccc2c(c1)-c1[nH]c3ccc([N+](=O)[O-])cc3c1CC(=O)N2 [Alsterpaullone, 2-Cyanoethyl] | 98.4 | 94.8 | – |
| O=C1Cc2c([nH]c3ccc([N+](=O)[O-])cc23)-c2ccccc2N1 [Alsterpaullone] | – | – | inhibition at 3 µM [1]: 90.7%; inhibition at 30 µM [1]: 78.4% |
| CN(C)CCCn1cc(C2=C(c3c[nH]c4ccccc34)C(=O)NC2=O)c2ccccc21 [Bisindolylmaleimide I] | 87.9 | – | – |
| CCn1cnc2c(Nc3cccc(Cl)c3)nc(N[C@H]3CCCC[C@H]3N)nc21 [Cdk1 Inhibitor, CGP74514A] | 87.2 | 100 | – |
| O=S(=O)(c1cccc2cnccc12)N1CCCNCC1 [Fasudil] | – | – | Inhibition of MRCK activity [2]: did not effectively inhibit MRCK activity |
| COc1ccc2c(c1)c(C1=C(c3c[nH]c4ccccc34)C(=O)NC1=O)cn2CCCN(C)C [Gö 6983] | 88.6 | 65.1 | – |
| O=S(=O)(NCCNC/C=C/c1ccc(Br)cc1)c1cccc2cnccc12 [H-89] | 79.3 | 99.1 | – |
| COC(=O)[C@@]1(O)C[C@H]2O[C@]1(C)n1c3ccccc3c3c4c(c5c6ccccc6n2c5c31)C(=O)NC4 [K-252a, Nocardiopsis sp., K-252a] | 87.3 | 98.4 | – |
| O=C1Nc2ccc3ncsc3c2/C1=C/c1cnc[nH]1 [PKR Inhibitor] | 80.1 | 100.5 | – |
| CN(C)C[C@H]1CCn2c(c(C3=C(c4cn(C)c5ccccc45)C(=O)NC3=O)c3ccccc32)C1 [Ro-32-0432] | 85.2 | 68.2 | – |
| CN[C@@H]1C[C@H]2O[C@@](C)([C@@H]1OC)n1c3ccccc3c3c4c(c5c6ccccc6n2c5c31)C(=O)NC4 [Staurosporine] | – | – | inhibition at 3 µM [1]: 98.6%; inhibition at 30 µM [1]: 100% |
| NC(=O)Nc1sc(-c2ccc(F)cc2)cc1C(N)=O [TPCA-1, 2-[(aminocarbonyl)amino]-5-(4-fluorophenyl)-3-thiophenecarboxamide] | – | – | IC50 [1]: 1.69 ± 0.13 µM; inhibition at 3 µM [1]: 50.1%; inhibition at 30 µM [1]: 88.9%; IC50 [3]: 1.04 ± 0.06 µM |
| C[C@@H](N)[C@H]1CC[C@H](C(=O)Nc2ccncc2)CC1 [Y-27632] | 83.5 | 96.6 | IC50 [1]: 0.47 ± 0.03 µM; Invasion 40 µm above the transwell filter surface, combination with MRCKα/β knockdown ([4]; MDA MB 231 cells with MRCKα/β siRNA knockdown plus Y-27632 treatment): significantly more effective than either MRCKα/β knockdown or Y-27632 treatment alone; Invasion 40 µm above the transwell filter surface, normalized to NTC siRNA transfected cells ([4]; NTC siRNA transfected MDA MB 231 cells): significantly reduced invasion |
| Cdk1/2 Inhibitor III | 100 | 100 | – |
